Experimental data from the supplement of paper PMC11451515.

System: SEM cells
Assay: cell viability relative to DMSO control; higher = less cytotoxic
Details: 48 h
Procedure, shortened: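 Viability, reported as a per-plate percentage of DMSO wells with cell-free wells as background, came from CellTiter-Glo One luminescence. Reading took place after 48 h at 37°C. Before that, NOMO1 or SEM (500 cells/well) or P12-Ichikawa (1000 cells/well) leukemia cells, adapted for at least four passages in each medium, were seeded in 1536-well plates (5 μl) and pin-dosed with library compounds in DMSO, 47 μM to 0.79 nM over 11 threefold points.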

[1] = HPLM + 10% dialyzed FBS, 0.000781 µM
[2] = HPLM + 10% dialyzed FBS, 0.00234 µM
[3] = HPLM + 10% dialyzed FBS, 0.00702 µM
[4] = HPLM + 10% dialyzed FBS, 0.0211 µM
[5] = HPLM + 10% dialyzed FBS, 0.0632 µM
[6] = HPLM + 10% dialyzed FBS, 0.19 µM
[7] = HPLM + 10% dialyzed FBS, 0.569 µM
[8] = HPLM + 10% dialyzed FBS, 1.71 µM
[9] = HPLM + 10% dialyzed FBS, 5.12 µM
[10] = HPLM + 10% dialyzed FBS, 15.4 µM
[11] = HPLM + 10% dialyzed FBS, 46.1 µM
[12] = RPMI 5 mM glucose + 10% FBS, 0.000781 µM
[13] = RPMI 5 mM glucose + 10% FBS, 0.00234 µM
[14] = RPMI 5 mM glucose + 10% FBS, 0.00702 µM
[15] = RPMI 5 mM glucose + 10% FBS, 0.0211 µM
[16] = RPMI 5 mM glucose + 10% FBS, 0.0632 µM
[17] = RPMI 5 mM glucose + 10% FBS, 0.19 µM
[18] = RPMI 5 mM glucose + 10% FBS, 0.569 µM
[19] = RPMI 5 mM glucose + 10% FBS, 1.71 µM
[20] = RPMI 5 mM glucose + 10% FBS, 5.12 µM
[21] = RPMI 5 mM glucose + 10% FBS, 15.4 µM
[22] = RPMI 5 mM glucose + 10% FBS, 46.1 µM
[23] = RPMI 5 mM glucose + 10% dialyzed FBS, 0.000781 µM
[24] = RPMI 5 mM glucose + 10% dialyzed FBS, 0.00234 µM
[25] = RPMI 5 mM glucose + 10% dialyzed FBS, 0.00702 µM
[26] = RPMI 5 mM glucose + 10% dialyzed FBS, 0.0211 µM
[27] = RPMI 5 mM glucose + 10% dialyzed FBS, 0.0632 µM
[28] = RPMI 5 mM glucose + 10% dialyzed FBS, 0.19 µM
[29] = RPMI 5 mM glucose + 10% dialyzed FBS, 0.569 µM
[30] = RPMI 5 mM glucose + 10% dialyzed FBS, 1.71 µM
[31] = RPMI 5 mM glucose + 10% dialyzed FBS, 5.12 µM
[32] = RPMI 5 mM glucose + 10% dialyzed FBS, 15.4 µM
[33] = RPMI 5 mM glucose + 10% dialyzed FBS, 46.1 µM

Row | SMILES | cell viability [1] | cell viability [2] | cell viability [3] | cell viability [4] | cell viability [5] | cell viability [6] | cell viability [7] | cell viability [8] | cell viability [9] | cell viability [10] | cell viability [11] | cell viability [12] | cell viability [13] | cell viability [14] | cell viability [15] | cell viability [16] | cell viability [17] | cell viability [18] | cell viability [19] | cell viability [20] | cell viability [21] | cell viability [22] | cell viability [23] | cell viability [24] | cell viability [25] | cell viability [26] | cell viability [27] | cell viability [28] | cell viability [29] | cell viability [30] | cell viability [31] | cell viability [32] | cell viability [33]
1 | N[S+](=O)([O-])c1cccc2c1C(=O)c1cccc(O)c1C2=O | 84.4% | 95.8% | 98.9% | 84.2% | 91.8% | 91.5% | 61.6% | 59.9% | 53.7% | 44.1% | 3.56% | 95.8% | 96.3% | 102% | 68.9% | 94.7% | 83.2% | 51.1% | 44.2% | 21.9% | 4.54% | 3.13% | 89.4% | 102% | 96.1% | 62.1% | 95.1% | 70% | 40.8% | 33.3% | 18.3% | 24.5% | 3.78%
2 | N#Cc1ccnc(Nc2cc(C3CCN(C4COC4)CC3)cc(N3CCC(F)(F)C3)n2)c1 | 96.4% | 97.9% | 91.6% | 110% | 110% | 104% | 109% | 103% | 102% | 35.3% | 10.2% | 107% | 127% | 125% | 128% | 123% | 110% | 131% | 112% | 100% | 43.7% | 8.66% | 103% | 110% | 97.8% | 111% | 121% | 101% | 110% | 106% | 85.5% | 25.5% | 9.03%
3 | NC(=O)c1cccc2nc(-c3ccc([C@H]4CCCN4)cc3F)[nH]c12 | 86.3% | 93.6% | 116% | 113% | 113% | 110% | 109% | 86.9% | 61.6% | 39.8% | 21.8% | 81.3% | 80.4% | 103% | 93.7% | 98.6% | 97.9% | 98.3% | 70.4% | 45.9% | 31.8% | 15.3% | 86.2% | 103% | 111% | 85.7% | 87.8% | 109% | 93.1% | 64.8% | 36.3% | 29.6% | 9%
4 | [O-]C(=O)C1=C(C(=C(Cl)C(=C1Cl)Cl)Cl)C/2=C/3\C=C(I)/C(=O)/C(=C3OC4=C2C=C(I)C(=C4I)[O-])I | 111% | 106% | 122% | 106% | 118% | 111% | 120% | 116% | 106% | 109% | 73% | 108% | 121% | 130% | 133% | 134% | 113% | 115% | 130% | 114% | 109% | 83.2% | – | – | – | – | – | – | – | – | – | – | –
5 | O=C(Oc1ccc([N+](=O)[O-])cc1)N1CCC(C(O)(c2ccc3c(c2)OCO3)c2ccc3c(c2)OCO3)CC1 | 72.2% | 89.4% | 64.5% | 97% | 86.3% | 94.8% | 99.7% | 83.7% | 46.6% | 93.5% | 86.1% | 83.3% | 72% | 58.6% | 93.2% | 94.5% | 90.4% | 84% | 78.6% | 35.4% | 99.3% | 85.5% | 90.1% | 95% | 61.6% | 95.9% | 88.6% | 94.7% | 97.9% | 99.3% | 46.3% | 96.2% | 98.2%
6 | CN(C)CCOc1ccc(-c2nc(-c3ccncc3)c(-c3ccc4c(c3)CC/C4=N\O)[nH]2)cc1 | 108% | 111% | 106% | 106% | 110% | 101% | 114% | 117% | 112% | 109% | 24.8% | 107% | 104% | 106% | 124% | 123% | 113% | 126% | 114% | 122% | 109% | 19.6% | 115% | 109% | 111% | 113% | 113% | 119% | 125% | 134% | 119% | 115% | 68.5%
7 | CN(C)CC[C@H](c1ccc(Cl)cc1)c1ccccn1 | 70.8% | 72.6% | 79.4% | 78.8% | 86.1% | 73.7% | 82.2% | 75.2% | 89.5% | 83.8% | 72.3% | 80.6% | 74.3% | 91% | 92.4% | 88.6% | 95.3% | 100% | 87.2% | 101% | 92.7% | 101% | 78.9% | 83.4% | 82.4% | 86% | 87.1% | 95.4% | 80.5% | 87.3% | 104% | 93.2% | 75.1%
8 | c1ccc(CNc2nc(N3CCOc4ccccc43)nc3c2CCCC3)cc1 | 87% | 94.6% | 88.7% | 96.9% | 102% | 109% | 93.3% | 106% | 98.5% | 89.9% | 83.2% | 91% | 88.6% | 87% | 89.4% | 101% | 96.2% | 89.5% | 95.9% | 91.4% | 77.7% | 71% | 75% | 91.3% | 96.5% | 96.8% | 95.5% | 103% | 106% | 108% | 94.5% | 82.7% | 82.9%
9 | CCCCC(C=O)NC(=O)C(CC(C)C)NC(=O)OCc1ccccc1 (centres undefined) | 93.8% | 99.8% | 90.6% | 105% | 98.5% | 58% | 99.1% | 102% | 92.1% | 81.1% | 57% | 110% | 87.2% | 94.2% | 102% | 110% | 88.7% | 91.8% | 90.9% | 84.3% | 85.1% | 52.6% | 93.8% | 82.8% | 78.1% | 89.1% | 86.2% | 66.2% | 96.7% | 94.5% | 84.8% | 71.1% | 47.9%
10 | CCN(CC)CCCCNc1ncc2c(n1)N(C)C(=O)N(c1c(Cl)c(OC)cc(OC)c1Cl)C2 | 99.2% | 110% | 110% | 111% | 119% | 111% | 117% | 114% | 99.2% | 48.3% | 11.9% | 109% | 112% | 117% | 125% | 119% | 106% | 126% | 109% | 104% | 44.4% | 13.2% | 125% | 118% | 107% | 114% | 116% | 116% | 129% | 104% | 101% | 52.3% | 16.9%
11 | O=C1Nc2ccc(I)cc2/C1=C/c1cc(Br)c(O)c(Br)c1 | 98.4% | 107% | 103% | 104% | 101% | 111% | 107% | 96.5% | 105% | 94.6% | 76.8% | 113% | 113% | 105% | 112% | 102% | 115% | 118% | 110% | 108% | 88.4% | 67.5% | 115% | 109% | 115% | 111% | 121% | 106% | 121% | 110% | 104% | 89% | 62.5%
12 | CC1=C(CC(=O)O)c2cc(F)ccc2/C1=C\c1ccc([S+](C)[O-])cc1 (centres undefined) | 111% | 121% | 130% | 125% | 127% | 125% | 126% | 109% | 108% | 104% | 76.7% | 96.6% | 86.7% | 98.5% | 95.8% | 90.3% | 106% | 83.6% | 90.7% | 79.6% | 71.9% | 63.4% | 126% | 118% | 119% | 118% | 130% | 115% | 105% | 107% | 95.9% | 99.8% | 74.3%
13 | Cc1cc(Nc2cc(CN3CCOCC3)c3nc(C)c(Cc4ccc(Cl)cc4F)n3n2)[nH]n1 | 119% | 116% | 113% | 108% | 116% | 105% | 74.6% | 60.5% | 51.4% | 22.9% | 21.4% | 113% | 107% | 114% | 109% | 108% | 83.2% | 61.6% | 58.8% | 49.4% | 14.8% | 6.83% | 109% | 129% | 122% | 92.4% | 106% | 95.2% | 66.1% | 52.7% | 40.9% | 11.6% | 9.11%
14 | C=CC(=O)Nc1cccc(Nc2nc(NC3CCC(N(C)C)CC3)nc3c2ncn3C(C)C)c1 (centres undefined) | 107% | 106% | 112% | 112% | 105% | 95.9% | 81.9% | 40.6% | 9.48% | 4.66% | 4.5% | 116% | 107% | 101% | 113% | 117% | 106% | 86.9% | 70.1% | 10.8% | 4.33% | 3.98% | 105% | 111% | 109% | 110% | 115% | 107% | 82.5% | 40.9% | 9.22% | 3.79% | 3.4%
15 | CNCc1ccc(-c2[nH]c3cc(F)cc4c3c2CCNC4=O)cc1 | 101% | 103% | 126% | 148% | 122% | 118% | 117% | 133% | 155% | 141% | 109% | 106% | 118% | 128% | 123% | 134% | 127% | 143% | 152% | 163% | 153% | 128% | 94.5% | 110% | 115% | 115% | 95.7% | 130% | 126% | 136% | 115% | 120% | 106%
